pIC50: −log10 of the molar value. *1 amine or outer side, *2 acyl side, *3 side chain or, on linkers, in order; H or OH if unused. Where a SMILES comes first, the peptide text is derived from it. Bridges are numbered along the chain shown (N, C = ends). [ ]: non-standard residue; d: D form. The star is where a group is joined. X1 = CC[C@H](C)[C@@H](N[*:1])[C@@H](O)CC(=O)O[C@H](C(=O)[C@H](C)C(=O)[*:2])C(C)C; NMeY = CN[C@@H](Cc1ccc(O)cc1)C(=O)O; dNMeL = CN[C@H](CC(C)C)C(=O)O; Pyruvoyl = CC(=O)C(=O)*
Key:
[1] = test system: HGC27 gastric carcinoma cells; assay: Cell growth inhibition (MTT, 72 h), HGC27; assay type: cell-based; settings: parental HGC27, 72 h
Procedure: HeLa cervix adenocarcinoma (ATCC CCL-2), K-562 chronic myelogenous leukemia (ATCC CCL-243), NCI-H460 lung cancer (ATCC HTB-177) and HGC27 gastric cancer (ATCC CRL-2506) cells were obtained from ATCC (Manassas, VA, USA) and cultured following standard procedures. Viability assays were performed utilizing 3-(4,5-dimethylthiazol-2-yl)-2,5-diphenyltetrazolium bromide (MTT) according to methods described elsewhere[46].

[2] = test system: human haploid cells with eEF1A2 knock-out; settings: CRISPR/CAS9, versus parental cells, data not shown, results not conclusive
human leukemic cells = settings: cited from earlier work
Source text: The high affinity of this interaction is in consonance with the nanomolar antiproliferative potency of this compound, also observed in many previous reports (for a review see ref. [10]).

[3] = test system: K-562 chronic myelogenous leukemia cells; assay: Cell growth inhibition (72 h), K-562; assay type: cell-based; settings: K-562, 72 h
[4] = test system: eEF1A2 in HeLa protein extract; assay: DARTS assay (subtilisin digestion of HeLa protein extract); assay type: binding, human; settings: plitidepsin 1 h, subtilisin 30 min, room temperature, Western blot
Procedure: (A) Saturation binding curve. […] (B) Dissociation kinetics of [14C]-plitidepsin from eEF1A2.
Each sample was then digested with subtilisin for 30 min at room temperature.
Protein extracts from HeLa cells were obtained by treating them with lysis buffer (see above) and kept on ice for 15 min. Cell extracts were cleared by centrifugation at 14,000 × g for 15 min at 4 °C. […] Extracts were digested with the indicated concentrations of Subtilisin (EC 3.4.21.62) for 30 min at RT. […] Quantitation of the eEF1A2 bands was performed with the Image Lab v5.2.1 software (Bio-Rad, Hercules, CA, USA).

[5] = test system: subcellular and chromatographic fractions of K-562 cell lysate; assay: Binding of [14C]-plitidepsin to K-562 lysate fractions
Procedure: Figure 4 Identification of the plitidepsin-binding protein in a K-562 cells lysate. […] In the horizontal axis “P” and “S” mean “pellet” and “supernatant”, respectively, with the figure aside denoting the relative centrifugal force (in thousands of g) used to obtain such fraction. Data (in dpm per mg of protein) represent the mean of three independent samples with error bars showing S.D. * means p < 0.05. (C) Anion-exchange chromatography on DEAE, flow rate 5 mL/min. (D) Cation-exchange chromatography on SP, flow rate 2.5 mL/min. (E) Size exclusion chromatography on Superdex 200, flow rate 4 mL/min. Representative fractions (4-mL) from each portion of the eluates were analyzed for their binding to [^14C]-plitidepsin in the presence (grey bars, non-specific binding) or absence (black bars, total binding) of a 20-fold excess of unlabeled drug. Only fractions showing significant specific binding to the radioligand were pooled and progressed to the next chromatographic step. In all cases absorbance is expressed in mAU and conductivity in mS/cm.
The rest of the peptides detected in this material corresponded to fragments whose sequences are common to both isoforms, thus discarding the presence of any other protein.
After 1 h incubation at room temperature 400 μL of each tube were withdrawn and processed as described above.

[6] = test system: HeLa cells ectopically overexpressing eEF1A2-GFP; assay: Antiproliferative activity in HeLa overexpressing eEF1A2-GFP; assay type: cell-based, human; settings: HeLa overexpressing eEF1A2-GFP (Supplementary Figure 1)
Procedure: (§1) For transfection and selection of cell clones, HeLa and HeLa-APL-R cells were seeded in 24 well plates at 40% confluence and allowed to stand for 24 hours at 37 °C and 5% CO2. Before transfection, the culture medium was changed to Opti-MEM (Life Technologies, Carlsbad, CA, USA). Plasmids encoding eEF1A2-GFP were incubated with Lipofectamine (Life Technologies, Carlsbad, CA, USA) under the recommendations of the manufacturer and added to the cell medium. After 24 h incubation at 37 °C and 5% CO2, the culture medium was replaced by the standard DMEM supplemented with 2 mg/ml of G-418 for the selection of clones expressing the exogenous gene. Clones were further selected following the expression of the GFP-fused protein through fluorescence microscopy.
LEGENDS TO SUPPL EMENTARY FI GURES
HeLa and HeLa-APL -R cells.
autofluorescence AF (grey).
GFP at different concentrations identified in the phasor plot.
Supplementary Figure 3. FRET efficiency estimation from FRET “Dn” and FRET
of incubation with 10 nM plitidepsin- DMAC. Clusters of phasors corresponding to the […]

[7] = test system: p38, ERK and JNK phosphorylation in HeLa-APL-R cells expressing eEF1A2-GFP; assay: Signaling (Western blot) in HeLa-APL-R expressing eEF1A2-GFP; assay type: cell-based, human; settings: plitidepsin 450 nM
Procedure: (A) HeLa and HeLa-APL-R cells were stably transfected with an expression vector encoding for eEF1A2-GFP fusion protein. Clones homogeneously expressing the GFP were selected. The levels of expression of eEF1A2 were analyzed by Western blot using specific antibodies. The position of the endogenous and the GFP-fusion proteins are indicated. […] Levels of expression attained after transfection were similar to the endogenous levels. […] Concentration-response curves were performed at 72 h. Cell growth was determined by the MTT method and expressed as percentage of control cell survival.
as §1

[8] = test system: CHRM1 (M1 muscarinic acetylcholine receptor); assay: PathHunter CHRM1 activation; assay type: cell-based; settings: data not shown
Source text: For example, it is known that eEF1A is able to directly increase the activity of sphingosine kinase-1 (SK1), an effect that is related to oncogenesis. […] The hijacking of eEF1A with the consequent reduction of SK1 activity has already been described as a biological mechanism in dengue virus type-2 infected cells. Another example is the specific binding of eEF1A2 to the i3 loop of M4, but not M1, muscarinic acetylcholine receptor[40]. This direct interaction with M4 regulates its cell membrane density and activity. […] This is due to a specific interaction of eEF1A with aberrant polypeptides named defective ribosomal products (DRiPs) that are ligated to multi-ubiquitin chains following translation damage; eEF1A also plays a role in sensing DRiP accumulation when the proteasome is inhibited.

[9] = test system: JNK and p38 MAPK, oxidative stress in tumor cells; settings: cited from earlier work
Source text: (§2) Plitidepsin (Aplidin) is a cyclic depsipeptide originally isolated from the marine tunicate Aplidium albicans. […] Plitidpesin has recently completed a pivotal phase III clinical trial for multiple myeloma (clinicaltrials.gov identifier: NCT01102426) that has shown a statistically significant 35% reduction in the risk of progression or death over the comparator (p = 0.0054). This study has met its primary endpoint. In tumor cells, the compound induces a potent oxidative stres ...

[10] = test system: multiple myeloma patients; settings: phase III, p = 0.0054, ref clinicaltrials.gov NCT01102426; cited from earlier work
Source text: as §2

[11] = two different COMPARE analyses, no reference given; cited from earlier work
Source text: as §2

CC[C@H](C)[C@H]1NC(=O)[C@@H](NC(=O)[C@@H](CC(C)C)N(C)C(=O)[C@@H]2CCCN2C(=O)C(C)=O)[C@@H](C)OC(=O)[C@H](Cc2ccc(OC)cc2)N(C)C(=O)[C@@H]2CCCN2C(=O)[C@H](CC(C)C)NC(=O)[C@@H](C)C(=O)[C@H](C(C)C)OC(=O)C[C@@H]1O [plitidepsin, Plitidepsin] (Pyruvoyl-P[dNMeL]T[X1]LP[NMeY](Me); ester 3-C (inferred))
pIC50 [1]: 9.05 | resistance of eEF1A2 knock-out cells to plitidepsin [2]: increased resistance | effect of cytochalasin B and jasplakinolide pretreatment on apoptotic response (human leukemic cells; 10 nM plitidepsin, actin-binding agents): prevented | effect of cycloheximide pretreatment on apoptotic response (human leukemic cells; 10 nM plitidepsin, cycloheximide at concentrations that inhibit protein synthesis): not to be affected | apoptotic response (human leukemic cells; human leukemic cells, 10 nM): fast and complete apoptotic response | pIC50 [3]: 8.03 | protection of eEF1A2 from digestion by subtilisin [4]: protected eEF1A2 from digestion by subtilisin in a concentration-dependent manner | proteins detected as capable of binding plitidepsin ([5]; K-562 lysate, MALDI-TOF/TOF identification): both isoforms of eEF1A are the only proteins | specific binding by size-exclusion peaks ([5]; Superdex 200 peaks, fourth peak eluting at 80 min, ca. 50 kDa): only the fourth one | additional sensitization to the drug [6]: did not show any additional sensitization | phosphorylation of p38, ERK and JNK [7]: led to phosphorylation of p38, ERK and JNK | effect on CHRM1 [8]: did not affect CHRM1 | activation of JNK and p38 [9]: rapid and sustained activation | oxidative stress [9]: potent oxidative stress | reduction in the risk of progression or death over the comparator [10]: 35% | similarity with other antitumor agents [11]: no similarity with any other antitumor agent
